Test results taken from patent US20240425518A1, “N-MACROCYCLIC AMIDE COMPOUNDS, PREPARATION METHODS THEREOF AND APPLICATIONS THEREOF AS MEDICAMENTS” (Chengdu FANXI Biopharma Co., Ltd., priority 2023, published 2024).
Positions count from the first letter of the chain named.

Experiments:
Format in all cases: biochemical
Ab1 (h) = target: T1, Ab1 (h) (Homo sapiens, UniProt P00519); test: Radioisotope labeling kinase assay (Eurofins), Ab1; conditions: 1 μM compound; read-out: Inhibitory activity per unit concentration/Activity % Ab1 (h)
T1 construct: purchased Eurofins
T1 sequence (P00519 whole entry): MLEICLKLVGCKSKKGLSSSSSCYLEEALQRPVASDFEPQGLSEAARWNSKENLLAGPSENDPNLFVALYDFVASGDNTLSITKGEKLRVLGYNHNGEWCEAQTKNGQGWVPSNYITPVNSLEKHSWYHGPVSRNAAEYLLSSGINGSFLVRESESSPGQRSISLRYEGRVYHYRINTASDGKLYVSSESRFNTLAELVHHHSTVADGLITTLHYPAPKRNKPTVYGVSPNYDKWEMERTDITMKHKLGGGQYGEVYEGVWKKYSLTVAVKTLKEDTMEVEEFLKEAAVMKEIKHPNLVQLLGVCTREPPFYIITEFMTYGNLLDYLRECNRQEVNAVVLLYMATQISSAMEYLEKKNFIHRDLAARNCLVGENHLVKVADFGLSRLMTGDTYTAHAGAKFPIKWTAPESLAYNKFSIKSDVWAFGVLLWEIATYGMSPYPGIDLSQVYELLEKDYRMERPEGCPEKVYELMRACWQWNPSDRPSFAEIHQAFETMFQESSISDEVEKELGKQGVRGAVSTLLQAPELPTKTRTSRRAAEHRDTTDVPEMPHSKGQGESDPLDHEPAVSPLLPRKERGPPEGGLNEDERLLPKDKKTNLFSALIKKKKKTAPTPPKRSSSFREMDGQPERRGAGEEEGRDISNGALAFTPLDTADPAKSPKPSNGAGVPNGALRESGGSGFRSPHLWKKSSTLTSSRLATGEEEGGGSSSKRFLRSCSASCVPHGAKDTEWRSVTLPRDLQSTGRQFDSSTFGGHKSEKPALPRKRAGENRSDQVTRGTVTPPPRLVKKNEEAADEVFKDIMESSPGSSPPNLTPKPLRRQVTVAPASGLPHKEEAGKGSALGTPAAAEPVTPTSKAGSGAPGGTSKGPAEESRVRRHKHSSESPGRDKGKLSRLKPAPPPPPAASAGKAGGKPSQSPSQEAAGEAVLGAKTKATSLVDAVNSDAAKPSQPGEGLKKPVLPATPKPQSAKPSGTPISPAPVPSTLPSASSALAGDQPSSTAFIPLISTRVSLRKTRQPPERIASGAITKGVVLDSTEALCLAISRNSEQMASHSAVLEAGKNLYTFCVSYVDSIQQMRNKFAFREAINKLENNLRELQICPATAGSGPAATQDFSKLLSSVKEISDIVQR
Description: (§1) An activity to a human recombinant protein kinase of a series of compounds was determined by a radioisotope labeling method, which was provided by Eurofins Company. A compound to be detected was mixed with a corresponding protein kinase buffer (20 mM propyl sulfonate (MOPS, […].), 1 mM EDTA, 0.10 β-mercaptoethanol, 0.010 Brij-35, […], and 1 mg/mL BSA), the mixture was added into a reaction system (100 μM reaction substrate […], 8 mM MOPS with a pH value of 7.0, 10 mM MgAcetate, 0.2 mM EDTA, and a certain concentration of γ-^33P-ATP). After adding an MgATP composite solution, the reaction was started at room temperature for 40 minutes, and the reaction was terminated by adding 5 μl of […] solution. Then, 10 μl of reaction solution was dropwise added onto a filter and washed with 75 mM phosphoric acid solution for three times, 5 minutes each time, then washed with methanol once again, and dried and subjected to scintillation counting.

BTK (h) = target: T2, BTK (h) (Homo sapiens, UniProt Q06187); test: Radioisotope labeling kinase assay (Eurofins), BTK; conditions: 1 μM compound; read-out: Inhibitory activity per unit concentration/Activity % BTK (h)
T2 construct: purchased Eurofins
T2 sequence (Q06187 whole entry): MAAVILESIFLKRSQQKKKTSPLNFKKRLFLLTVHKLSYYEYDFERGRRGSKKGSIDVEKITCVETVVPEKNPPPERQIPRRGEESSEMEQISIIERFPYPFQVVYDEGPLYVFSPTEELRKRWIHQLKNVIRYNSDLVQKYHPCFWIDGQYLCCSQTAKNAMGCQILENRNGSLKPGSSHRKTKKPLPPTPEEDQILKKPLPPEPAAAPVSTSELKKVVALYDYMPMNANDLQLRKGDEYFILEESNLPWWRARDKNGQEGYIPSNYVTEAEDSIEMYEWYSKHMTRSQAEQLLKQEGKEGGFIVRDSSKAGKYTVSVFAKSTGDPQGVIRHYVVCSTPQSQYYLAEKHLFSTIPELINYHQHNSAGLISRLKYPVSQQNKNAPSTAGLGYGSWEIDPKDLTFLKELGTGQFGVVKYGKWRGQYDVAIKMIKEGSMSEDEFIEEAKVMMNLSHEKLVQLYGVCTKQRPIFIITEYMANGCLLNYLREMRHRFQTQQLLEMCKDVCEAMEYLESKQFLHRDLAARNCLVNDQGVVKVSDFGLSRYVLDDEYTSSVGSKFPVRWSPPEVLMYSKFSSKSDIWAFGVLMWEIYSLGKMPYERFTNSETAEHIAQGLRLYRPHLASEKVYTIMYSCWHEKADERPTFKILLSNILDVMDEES
Description: as §1

Flt3 (D835Y) (h) = target: T3, Flt3 (D835Y) (h) (Homo sapiens, UniProt P36888, D835Y); test: Radioisotope labeling kinase assay (Eurofins), Flt3 (D835Y); conditions: 1 μM compound; read-out: Inhibitory activity per unit concentration/Activity % Flt3 (D835Y) (h)
T3 construct: purchased Eurofins
T3 sequence (P36888 27-993 D835Y): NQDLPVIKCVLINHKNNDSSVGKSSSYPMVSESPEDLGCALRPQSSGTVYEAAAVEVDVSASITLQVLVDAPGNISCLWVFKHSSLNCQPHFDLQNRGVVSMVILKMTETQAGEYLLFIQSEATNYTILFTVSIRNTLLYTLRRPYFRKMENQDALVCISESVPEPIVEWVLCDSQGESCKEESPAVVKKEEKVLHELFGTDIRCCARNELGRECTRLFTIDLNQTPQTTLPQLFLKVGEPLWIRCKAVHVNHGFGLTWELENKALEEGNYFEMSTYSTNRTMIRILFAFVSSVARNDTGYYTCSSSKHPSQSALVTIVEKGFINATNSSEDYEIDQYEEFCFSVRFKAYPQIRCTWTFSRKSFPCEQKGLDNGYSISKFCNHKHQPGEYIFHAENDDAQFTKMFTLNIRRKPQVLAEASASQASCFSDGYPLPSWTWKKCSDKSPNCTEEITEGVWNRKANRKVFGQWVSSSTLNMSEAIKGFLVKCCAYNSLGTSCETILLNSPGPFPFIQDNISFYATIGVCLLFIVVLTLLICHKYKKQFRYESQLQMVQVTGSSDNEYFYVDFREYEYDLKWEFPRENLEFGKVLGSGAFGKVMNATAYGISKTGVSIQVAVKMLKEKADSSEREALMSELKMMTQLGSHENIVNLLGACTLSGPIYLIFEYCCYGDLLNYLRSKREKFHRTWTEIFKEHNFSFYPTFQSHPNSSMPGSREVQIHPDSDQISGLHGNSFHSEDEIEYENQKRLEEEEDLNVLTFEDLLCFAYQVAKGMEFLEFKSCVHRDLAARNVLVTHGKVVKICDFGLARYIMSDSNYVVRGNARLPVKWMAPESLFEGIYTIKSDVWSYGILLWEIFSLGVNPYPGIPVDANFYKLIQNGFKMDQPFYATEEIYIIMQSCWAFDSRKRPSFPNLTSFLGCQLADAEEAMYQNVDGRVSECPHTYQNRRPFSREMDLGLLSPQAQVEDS
Description: as §1

Flt3 (h) = target: T4, Flt3 (h) (Homo sapiens, UniProt P36888); test: Radioisotope labeling kinase assay (Eurofins), Flt3; conditions: 1 μM compound; read-out: Inhibitory activity per unit concentration/Activity % Flt3 (h)
T4 construct: purchased Eurofins
T4 sequence (P36888 27-993): T3 sequence (P36888 27-993 D835Y) with Y809D
Description: as §1

JAK3 (h) = target: T5, JAK3 (h) (Homo sapiens, UniProt P52333); test: Radioisotope labeling kinase assay (Eurofins), JAK3; conditions: 1 μM compound; read-out: Inhibitory activity per unit concentration/Activity % JAK3 (h)
T5 construct: purchased Eurofins
T5 sequence (P52333 1-1124): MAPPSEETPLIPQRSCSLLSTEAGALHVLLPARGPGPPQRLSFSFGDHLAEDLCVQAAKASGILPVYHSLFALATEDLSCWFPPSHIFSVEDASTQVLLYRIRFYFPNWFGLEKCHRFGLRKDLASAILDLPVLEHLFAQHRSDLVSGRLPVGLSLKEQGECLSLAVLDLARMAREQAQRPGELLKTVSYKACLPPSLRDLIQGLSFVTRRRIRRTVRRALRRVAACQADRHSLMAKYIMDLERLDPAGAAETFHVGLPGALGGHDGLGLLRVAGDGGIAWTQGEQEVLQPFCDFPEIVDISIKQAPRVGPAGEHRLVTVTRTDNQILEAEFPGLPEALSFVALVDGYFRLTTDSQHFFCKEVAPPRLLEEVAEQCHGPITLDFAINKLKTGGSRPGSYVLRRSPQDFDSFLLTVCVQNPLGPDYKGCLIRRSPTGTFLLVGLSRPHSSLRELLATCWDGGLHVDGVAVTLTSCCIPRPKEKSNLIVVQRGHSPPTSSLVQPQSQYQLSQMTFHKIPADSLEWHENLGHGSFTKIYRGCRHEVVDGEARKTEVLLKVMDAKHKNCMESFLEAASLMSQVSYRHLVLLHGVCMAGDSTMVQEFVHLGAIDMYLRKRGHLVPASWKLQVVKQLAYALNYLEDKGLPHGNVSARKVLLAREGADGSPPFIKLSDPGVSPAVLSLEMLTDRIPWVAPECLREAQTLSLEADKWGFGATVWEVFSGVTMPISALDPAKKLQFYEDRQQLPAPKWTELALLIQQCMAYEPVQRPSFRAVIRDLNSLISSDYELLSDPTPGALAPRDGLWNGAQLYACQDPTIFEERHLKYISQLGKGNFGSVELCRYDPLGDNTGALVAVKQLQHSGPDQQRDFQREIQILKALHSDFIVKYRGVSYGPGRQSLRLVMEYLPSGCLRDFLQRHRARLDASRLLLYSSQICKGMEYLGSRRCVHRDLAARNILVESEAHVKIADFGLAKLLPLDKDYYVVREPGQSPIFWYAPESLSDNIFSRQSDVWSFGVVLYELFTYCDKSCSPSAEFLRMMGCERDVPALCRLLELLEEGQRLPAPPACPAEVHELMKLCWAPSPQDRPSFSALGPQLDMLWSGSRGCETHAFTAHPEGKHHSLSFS
Description: as §1

Compound	activity at 1 µM (Ab1 (h))	activity at 1 µM (BTK (h))	activity at 1 µM (Flt3 (D835Y) (h))	activity at 1 µM (Flt3 (h))	activity at 1 µM (JAK3 (h))
CN1C/C=C/COCc2cccc(c2)-c2ccnc(n2)Nc2cc(cc(NC(=O)/C=C/C(F)(F)F)c2)C1 [XVI-29]	60%	78%	3%	10%	36%
O=C(/C=C/COc1ccc2cc1Nc1nccc(n1)-c1cccc(c1)COC/C=C/COC2)N1CCOCC1 [XVI-22]	81%	82%	41%	96%	100%
NC1CCN(C/C=C/C(=O)Nc2cc3cc(c2)Nc2nccc(n2)-c2cccc(c2)COC/C=C/COC3)C1 (centres unmarked) [XVI-17]	-4%	17%	8%	16%	4%
CN1C/C=C/COCc2cccc(c2)-c2ccnc(n2)Nc2cc(N)cc(c2)C1 [XIII-2]	57%	71%	1%	7%	77%
CN1C/C=C/COCc2cccc(c2)-c2ccnc(n2)Nc2cc(cc(NC(=O)/C=C/c3ccc(C#N)cc3)c2)C1 [XVI-27]	45%	77%	2%	8%	52%
O=C(/C=C/CN1CCC(O)C1)Nc1cc2cc(c1)Nc1nccc(n1)-c1cccc(c1)COC/C=C/COC2 (centres unmarked) [XVI-18]	2%	17%	4%	19%	8%
CCCC#CC(=O)Nc1cc2cc(c1)Nc1nccc(n1)-c1cccc(c1)COC/C=C/COC2 [XVII-2]	13%	36%	-1%	5%	36%
CN1C/C=C/COCc2cccc(c2)-c2ccnc(n2)Nc2cc(cc(NC(=O)/C=C/c3cnc[nH]3)c2)C1 [XVI-32]	50%	82%	0%	5%	30%
O=C(/C=C/COc1cc2cc(c1)Nc1nccc(n1)-c1cccc(c1)COC/C=C/COC2)N1CCCC1 [XVI-13]	39%	49%	-2%	24%	34%
C1=C/COCc2ccc(OC/C=C/CN3CCOCC3)c(c2)Nc2nccc(n2)-c2cccc(c2)COC/1 [XVI-23]	85%	90%	27%	78%	10%
CN1C/C=C/COCc2cccc(c2)-c2ccnc(n2)Nc2cc(cc(NC(=O)/C=C/CN3CCOCC3)c2)C1 [XVI-30]	55%	66%	2%	7%	61%
O=C(C#CCN1CCOCC1)Nc1cc2cc(c1)Nc1nccc(n1)-c1cccc(c1)COC/C=C/COC2 [XVII-3]	8%	17%	0%	2%	14%
C1=C/COCc2ccc(O/C=C/CN3CCCC3)c(c2)Nc2nccc(n2)-c2cccc(c2)CCC/1 [XVI-34]	98%	87%	79%	125%	87%
O=C(/C=C/C(F)(F)F)Nc1cc2cc(c1)Nc1nccc(n1)-c1cccc(c1)COC/C=C/COC2 [XVI-5]	57%	88%	7%	17%	75%
O=C(/C=C/COc1ccc2cc1Nc1nccc(n1)-c1cccc(c1)COC/C=C/COC2)N1CCCC1 [XVI-21]	92%	78%	44%	82%	95%
O=C(/C=C/COc1cc2cc(c1)Nc1nccc(n1)-c1cccc(c1)COC/C=C/COC2)N1CCOCC1 [XVI-14]	46%	47%	3%	8%	21%
